Laboratory results taken from patent US20160122320A1, “USEFUL COMBINATIONS OF MONOBACTAM ANTIBIOTICS WITH BETA-LACTAMASE INHIBITORS” (Basilea Pharmaceutica AG, priority 2005, published 2016).
Structures can show the parent of a compound that is named as a salt.

Tests used:
Test in all cases: MIC, NCCLS broth microdilution
Format in all cases: cell-based
Acinetobacter sp. J2 = settings: for MIC of antibiotic / MIC of antibiotic at fixed inhibitor concentration of 4 mg/L: Acinetobacter baumannii J2; for MIC of antibiotic: antibiotic alone, no inhibitor; for MIC of antibiotic at fixed inhibitor concentration (4 mg/L): Acinetobacter sp. J2, MIC of antibiotic compound 1 with the labelled bridged monobactam of formula II and clavulanate, 4 mg/L each
[1] = tested on: Pseudomonas aeruginosa MK1184; settings: for MIC of antibiotic: antibiotic alone, no inhibitor; for MIC of antibiotic at fixed inhibitor concentration (4 mg/L): MIC of antibiotic compound 1 with the labelled bridged monobactam of formula II and clavulanate, 4 mg/L each
[2] = tested on: Pseudomonas aeruginosa 1973E; settings: for MIC of antibiotic: antibiotic alone, no inhibitor; for MIC of antibiotic at fixed inhibitor concentration (4 mg/L): MIC of antibiotic compound 1 with the labelled bridged monobactam of formula II and clavulanate, 4 mg/L each
Description: Antimicrobial activity of the compounds and of their combinations was determined against a selection of organisms according to the standard procedures described by the National Committee for Clinical Laboratory Standards (National Committee for Clinical Laboratory. Standards (2000). Methods for Dilution Antimicrobial Susceptibility Tests for Bacteria That Grow Aerobically-Fifth Edition: Approved Standard M7-A5. NCCLS, Wayne, Pa., USA).
In all cases the final concentration of DMSO incubated with the bacteria is less than or equal to 1%. […] Plates were incubated overnight at an appropriate temperature (30° C. or 37° C.) and optical densities assessed by eye. The MIC value is defined as the lowest compound concentration completely inhibiting visible growth of the test organism. When combinations between compounds of formula I with compounds of formula II and are evaluated the compounds of formula I are tested in dilution series as described above while the compounds of formula II and III-XIII were present in all wells at a constant concentration of 4 μg/mL each.

Enterobacter cloacae P99 = settings: for MIC of antibiotic: antibiotic alone, no inhibitor; for MIC of antibiotic at fixed inhibitor concentration (4 mg/L): MIC of antibiotic compound 1 with the labelled bridged monobactam of formula II and clavulanate, 4 mg/L each
[3] = tested on: Klebsiella pneumoniae CF104; settings: for MIC of antibiotic: antibiotic alone, no inhibitor; for MIC of antibiotic at fixed inhibitor concentration (4 mg/L): MIC of antibiotic compound 1 with the labelled bridged monobactam of formula II and clavulanate, 4 mg/L each
Serratia marcescens S6 = settings: for MIC of antibiotic: antibiotic alone, no inhibitor; for MIC of antibiotic at fixed inhibitor concentration (4 mg/L): MIC of antibiotic compound 1 with the labelled bridged monobactam of formula II and clavulanate, 4 mg/L each
[4] = tested on: Stenotrophomonas malthophilia 1AC736; settings: for MIC of antibiotic / MIC of antibiotic at fixed inhibitor concentration of 4 mg/L: Stenotrophomonas maltophilia 1AC736; for MIC of antibiotic: antibiotic alone, no inhibitor; for MIC of antibiotic at fixed inhibitor concentration (4 mg/L): Stenotrophomonas malthophilia 1AC736, MIC of antibiotic compound 1 with the labelled bridged monobactam of formula II and clavulanate, 4 mg/L each

Row | SMILES | MIC of antibiotic (Acinetobacter sp. J2) | MIC of antibiotic at fixed inhibitor concentration of 4 mg/L (Acinetobacter sp. J2; with 102 and clavulanate) | MIC of antibiotic [1] | MIC of antibiotic at fixed inhibitor concentration of 4 mg/L ([1]; with 102 and clavulanate) | MIC of antibiotic [2] | MIC of antibiotic at fixed inhibitor concentration of 4 mg/L ([2]; with 102 and clavulanate) | MIC of antibiotic (Enterobacter cloacae P99) | MIC of antibiotic at fixed inhibitor concentration of 4 mg/L (Enterobacter cloacae P99; with 102 and clavulanate) | MIC of antibiotic [3] | MIC of antibiotic at fixed inhibitor concentration of 4 mg/L ([3]; with 102 and clavulanate) | MIC of antibiotic (Serratia marcescens S6) | MIC of antibiotic at fixed inhibitor concentration of 4 mg/L (Serratia marcescens S6; with 102 and clavulanate) | MIC of antibiotic [4] | MIC of antibiotic at fixed inhibitor concentration (4 mg/L) (Acinetobacter sp. J2) | MIC of antibiotic at fixed inhibitor concentration (4 mg/L) [1] | MIC of antibiotic at fixed inhibitor concentration (4 mg/L) [2] | MIC of antibiotic at fixed inhibitor concentration (4 mg/L) (Enterobacter cloacae P99) | MIC of antibiotic at fixed inhibitor concentration (4 mg/L) [3] | MIC of antibiotic at fixed inhibitor concentration (4 mg/L) (Serratia marcescens S6) | MIC of antibiotic at fixed inhibitor concentration (4 mg/L) [4] | further results
1 | NC(=O)OCC1C(NC(=O)C(=NOCc2cc(=O)c(O)cn2O)c2csc(N)n2)C(=O)N1OCC(=O)O (stereo not shown) [Compound 41] | 16 µg/mL | 16 µg/mL | 4 µg/mL | 4 µg/mL | 4 µg/mL | 4 µg/mL | >32 µg/mL | 16 µg/mL | >32 µg/mL | 0.5 µg/mL | 1 µg/mL | 0.5 µg/mL | 1 µg/mL |  |  |  |  |  |  |  | MIC of antibiotic at fixed inhibitor concentration of 4 mg/L (Acinetobacter sp. J2; with 324 and clavulanate): 4 µg/mL; MIC of antibiotic at fixed inhibitor concentration of 4 mg/L ([1]; with 324 and clavulanate): 4 µg/mL; MIC of antibiotic at fixed inhibitor concentration of 4 mg/L ([2]; with 324 and clavulanate): 8 µg/mL; MIC of antibiotic at fixed inhibitor concentration of 4 mg/L (Enterobacter cloacae P99; with 324 and clavulanate): 16 µg/mL; MIC of antibiotic at fixed inhibitor concentration of 4 mg/L ([3]; with 324 and clavulanate): 0.5 µg/mL; MIC of antibiotic at fixed inhibitor concentration of 4 mg/L (Serratia marcescens S6; with 324 and clavulanate): 0.5 µg/mL; MIC of antibiotic at fixed inhibitor concentration of 4 mg/L ([4]; with 102 and clavulanate): 2 µg/mL; MIC of antibiotic at fixed inhibitor concentration of 4 mg/L ([4]; with 324 and clavulanate): 1 µg/mL
2 | COC(=O)c1cc(C)c[n+](CC(=O)N2CC[C@@H]3[C@H]2C(=O)N3S(=O)(=O)[O-])c1 [Compound 114, (1S,5R)-2-{2-[3-(methoxycarbonyl)-5-methylpyridinium]acetyl}-7-oxo-2,6-diazabicyclo[3.2.0]heptane-6-sulfonate, inner salt] |  |  |  |  |  |  |  |  |  |  |  |  |  | >32 µg/mL | 16 µg/mL | 4 µg/mL | 32 µg/mL | 0.125 µg/mL | 0.25 µg/mL | 0.125 µg/mL | 
3 | CNC(=O)c1ccc[n+](CC(=O)N2CC[C@@H]3[C@H]2C(=O)N3S(=O)(=O)[O-])c1 [Compound 101, (1S,5R)-2-{2-[3-(N-methylcarbamoyl)pyridinium]acetyl}-7-oxo-2,6-diazabicyclo[3.2.0]heptane-6-sulfonate, inner salt] |  |  |  |  |  |  |  |  |  |  |  |  |  | >32 µg/mL | 8 µg/mL | 4 µg/mL | 32 µg/mL | 2 µg/mL | 0.5 µg/mL | 0.125 µg/mL | 
4 | Nc1nc(C(=NOCc2cc(=O)c(O)cn2O)C(=O)NC2CN(S(=O)(=O)O)C2=O)cs1 (stereo not shown) [Compound 9] | >32 µg/mL | >32 µg/mL | >32 µg/mL | 4 µg/mL | 8 µg/mL | 8 µg/mL | >32 µg/mL | 32 µg/mL | >32 µg/mL | 0.5 µg/mL | 16 µg/mL | 1 µg/mL | 0.5 µg/mL |  |  |  |  |  |  |  | MIC of antibiotic at fixed inhibitor concentration of 4 mg/L ([4]; with 102 and clavulanate): 0.25 µg/mL
5 | C[C@H]1[C@H](NC(=O)/C(=N\OCc2cc(=O)c(O)cn2O)c2nc(N)sc2Cl)C(=O)N1OS(=O)(=O)O [Compound 29, (3S,4S)-3-{(2Z)-2-(2-amino-5-chloro(1,3-thiazol-4-yl))-3-[(1,5-dihydroxy-4-oxo(2-hydropyridyl))methoxy]-3-azaprop-2-enoylamino}-4-methyl-2-oxoazetidinyl hydroxysulfonate] | >32 µg/mL | >32 µg/mL | >32 µg/mL | 8 µg/mL | 4 µg/mL | 8 µg/mL | >32 µg/mL | 0.25 µg/mL | >32 µg/mL | 0.5 µg/mL | 32 µg/mL | 1 µg/mL | 1 µg/mL |  |  |  |  |  |  |  | MIC of antibiotic at fixed inhibitor concentration of 4 mg/L (Acinetobacter sp. J2; with 102 and sulbactam): 2 µg/mL; MIC of antibiotic at fixed inhibitor concentration of 4 mg/L (Acinetobacter sp. J2; with 323 and sulbactam): 2 µg/mL; MIC of antibiotic at fixed inhibitor concentration of 4 mg/L ([1]; with 102 and sulbactam): 4 µg/mL; MIC of antibiotic at fixed inhibitor concentration of 4 mg/L ([1]; with 323 and sulbactam): 8 µg/mL; MIC of antibiotic at fixed inhibitor concentration of 4 mg/L ([2]; with 102 and sulbactam): 8 µg/mL; MIC of antibiotic at fixed inhibitor concentration of 4 mg/L ([2]; with 323 and sulbactam): 8 µg/mL; MIC of antibiotic at fixed inhibitor concentration of 4 mg/L (Enterobacter cloacae P99; with 102 and sulbactam): 8 µg/mL; MIC of antibiotic at fixed inhibitor concentration of 4 mg/L (Enterobacter cloacae P99; with 323 and sulbactam): 8 µg/mL; MIC of antibiotic at fixed inhibitor concentration of 4 mg/L ([3]; with 102 and sulbactam): 2 µg/mL; MIC of antibiotic at fixed inhibitor concentration of 4 mg/L ([3]; with 323 and sulbactam): 2 µg/mL; MIC of antibiotic at fixed inhibitor concentration of 4 mg/L (Serratia marcescens S6; with 102 and sulbactam): 8 µg/mL; MIC of antibiotic at fixed inhibitor concentration of 4 mg/L (Serratia marcescens S6; with 323 and sulbactam): 8 µg/mL; MIC of antibiotic at fixed inhibitor concentration of 4 mg/L ([4]; with 102 and clavulanate): 0.5 µg/mL; MIC of antibiotic at fixed inhibitor concentration of 4 mg/L ([4]; with 102 and sulbactam): 1 µg/mL; MIC of antibiotic at fixed inhibitor concentration of 4 mg/L ([4]; with 323 and sulbactam): 1 µg/mL

The next lines start with results.

Row | MIC of antibiotic (Acinetobacter sp. J2) | MIC of antibiotic at fixed inhibitor concentration of 4 mg/L (Acinetobacter sp. J2; with 102 and clavulanate) | MIC of antibiotic [1] | MIC of antibiotic at fixed inhibitor concentration of 4 mg/L ([1]; with 102 and clavulanate) | MIC of antibiotic [2] | MIC of antibiotic at fixed inhibitor concentration of 4 mg/L ([2]; with 102 and clavulanate) | MIC of antibiotic (Enterobacter cloacae P99) | MIC of antibiotic at fixed inhibitor concentration of 4 mg/L (Enterobacter cloacae P99; with 102 and clavulanate) | MIC of antibiotic [3] | MIC of antibiotic at fixed inhibitor concentration of 4 mg/L ([3]; with 102 and clavulanate) | MIC of antibiotic (Serratia marcescens S6) | MIC of antibiotic at fixed inhibitor concentration of 4 mg/L (Serratia marcescens S6; with 102 and clavulanate) | MIC of antibiotic [4] | MIC of antibiotic at fixed inhibitor concentration (4 mg/L) (Acinetobacter sp. J2) | MIC of antibiotic at fixed inhibitor concentration (4 mg/L) [1] | MIC of antibiotic at fixed inhibitor concentration (4 mg/L) [2] | MIC of antibiotic at fixed inhibitor concentration (4 mg/L) (Enterobacter cloacae P99) | MIC of antibiotic at fixed inhibitor concentration (4 mg/L) [3] | MIC of antibiotic at fixed inhibitor concentration (4 mg/L) (Serratia marcescens S6) | MIC of antibiotic at fixed inhibitor concentration (4 mg/L) [4] | SMILES | further results
6 |  |  |  |  |  |  |  |  |  |  |  |  |  | 4 µg/mL | >32 µg/mL | 4 µg/mL | 8 µg/mL | 1 µg/mL | 0.25 µg/mL | 0.125 µg/mL | NC(=O)Nc1ccc(NC(=O)N2CC[C@@H]3[C@H]2C(=O)N3S(=O)(=O)[O-])cc1.[Na+] [Compound 315] | 
7 |  |  |  |  |  |  |  |  |  |  |  |  |  | 2 µg/mL | >32 µg/mL | 2 µg/mL | 32 µg/mL | 2 µg/mL | 0.25 µg/mL | 0.125 µg/mL | Nc1ccc(NC(=O)N2CC[C@@H]3[C@H]2C(=O)N3S(=O)(=O)[O-])cc1.[Na+] [Compound 327, Sodium(1S,5R)-2-[N-(4-aminophenyl)carbamoyl]-7-oxo-2,6-diazabicyclo[3.2.0]heptane-6-sulfonate] | 
8 |  |  |  |  |  |  |  |  |  |  |  |  |  | 2 µg/mL | 32 µg/mL | 4 µg/mL | 8 µg/mL | 2 µg/mL | 0.25 µg/mL | 8 µg/mL | O=C(C[n+]1ccccc1)Nc1ccc(SCC(=O)N2CC[C@@H]3[C@H]2C(=O)N3S(=O)(=O)[O-])cc1 [Compound 204, (1S,5R)-7-oxo-2-{2-[4-(2-pyridiniumacetylamino)phenylthio]acetyl}-2,6-diazabicyclo[3.2.0]heptane-6-sulfonate, inner salt] | 
9 |  |  |  |  |  |  |  |  |  |  |  |  |  | 16 µg/mL | >32 µg/mL | 8 µg/mL | 8 µg/mL | 0.5 µg/mL | 0.25 µg/mL | 0.125 µg/mL | O=C(Nc1cccc(O)c1)N1CC[C@@H]2[C@H]1C(=O)N2S(=O)(=O)[O-].[Na+] [Compound 317] | 
10 |  |  |  |  |  |  |  |  |  |  |  |  |  | >32 µg/mL | 32 µg/mL | 8 µg/mL | 32 µg/mL | 0.125 µg/mL | 0.25 µg/mL | 0.125 µg/mL | O=C(C[n+]1cccc(-c2ccccc2)c1)N1CC[C@@H]2[C@H]1C(=O)N2S(=O)(=O)[O-] [Compound 124, (1S,5R)-7-oxo-2-[2-(3-phenylpyridinium)acetyl]-2,6-diazabicyclo[3.2.0]heptane-6-sulfonate, inner salt] | 
